{"source": "paper PMC10568461", "about": "“A pilot study of cerebral metabolism and serotonin 5-HT2A receptor occupancy in rats treated with the psychedelic tryptamine DMT in conjunction with the MAO inhibitor harmine” (Frontiers in Pharmacology, 2023)", "key": {"brain glucose metabolism": {"test_system": "brain glucose metabolism", "test": "[^18F]FDG-PET of cerebral glucose metabolism (experiment 1)", "assay_type": "in vivo, rat", "conditions": "for [^18F]FDG-PET SUV normalized to whole-brain uptake (SUVglob): 1 mg/kg s.c.; for [^18F]FDG-PET SUV normalized to whole-brain uptake (SUVglob) / [^18F]FDG-PET glucose normalized SUV (SUVgluc): mean (SD)", "description": "The dynamic PET recordings were histogrammed into six frames of 5 minutes each, and reconstructed with attenuation, decay, and scatter correction using the OSEM3D/SP-MAP algorithm (2 x OSEM iterations and 18 x MAP iterations) with a matrix size of 128 × 128 pixels, resulting in a final target resolution of 0.8 mm/pixel. Pre-processing of PET scans was performed using PMOD v4.2 (PMOD Technologies LLC, Zurich, Switzerland). The [^18F]FDG images were averaged across the six frames and then converted into standardized uptake values (SUV), whereupon the image was cropped to the head of the animal and automatically co-registered to a standard [^18F]FDG-PET template. We used Schiffer’s atlas ([Schiffer et al., 2006]) for parcellation of bilateral brain regions within the cortico-striato-thalamo-cortical (CSTC) circuit, i.e. bilateral nucleus accumbens (NAc), medial prefrontal cortex (mPFC), orbitofrontal cortex (OFC), hippocampus, striatum, thalamus, visual cortex, cerebellum as a comparator region, and whole brain. We selected these regions from the CSTC circuit based on a conceptual model holding that the thalamus acts as a filter/gatekeeper of sensory information, broadcasting to cortical regions that subserve conscious experience ([Wang et al., 2006]; [McAlonan et al., 2008]). Perturbation of this CSTC circuit is implicated in the action of psychedelic compounds ([Geyer and Vollenweider, 2008]; [Preller et al., 2019]). We scaled individual regional SUV results to the mean blood glucose levels measured during the recording session (SUVgluc) and to the global [^18F]FDG uptake (SUVglob)."}, "MAO-A [1]": {"target": "T1, MAO-A (Rattus norvegicus, UniProt P21396)", "T1 sequence (P21396 1-526)": "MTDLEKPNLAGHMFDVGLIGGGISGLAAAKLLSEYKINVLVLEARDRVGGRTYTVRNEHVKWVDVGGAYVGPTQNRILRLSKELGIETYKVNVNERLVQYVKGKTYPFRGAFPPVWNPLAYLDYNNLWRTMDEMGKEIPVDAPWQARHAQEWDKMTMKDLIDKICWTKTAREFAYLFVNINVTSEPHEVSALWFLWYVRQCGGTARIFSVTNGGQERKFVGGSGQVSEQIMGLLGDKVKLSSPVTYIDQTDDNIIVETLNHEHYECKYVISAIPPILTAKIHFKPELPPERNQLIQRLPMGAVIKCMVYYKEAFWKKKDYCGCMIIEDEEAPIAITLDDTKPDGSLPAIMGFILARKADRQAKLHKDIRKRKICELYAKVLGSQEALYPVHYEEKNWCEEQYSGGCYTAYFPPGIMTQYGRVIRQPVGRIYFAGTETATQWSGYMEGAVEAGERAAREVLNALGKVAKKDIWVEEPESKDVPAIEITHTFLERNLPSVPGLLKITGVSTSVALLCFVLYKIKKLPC", "test": "MAO-A inhibition in living brain inferred from cerebral 3-IAA", "assay_type": "in vivo", "conditions": "Experiment 1, harmine 1 mg/kg with DMT; suggested by lower cerebral 3-IAA"}, "rats": {"test_system": "rats", "test": "Behavioural observations in treated rats", "assay_type": "in vivo, rat", "conditions": "not systematically assessed"}, "MAO-A [2]": {"target": "T1, MAO-A", "test": "Apparent affinity at MAO binding sites in living brain", "assay_type": "in vivo", "conditions": "extrapolated from the 150-fold in vitro/in vivo difference of [^18F]fluoroethyl-harmol; read-out: Predicted apparent affinity for MAO-A in living brain"}, "[3]": {"parameters": "method as in ref Guan et al., 2001; Li et al., 2017; Wang et al., 2019; Brito-da-Costa et al., 2020", "conditions": "rats, 0.5 to 3.3 mg/kg i.v. and 20–40 mg/kg p.o.; ref Guan et al., 2001; Li et al., 2017; Wang et al., 2019; Brito-da-Costa et al., 2020; cited from earlier work"}, "[4]": {"test": "Brain concentrations of harmine, DMT and metabolites by UHPLC-MS after s.c. harmine and/or DMT", "conditions": "rat, subcutaneous", "quoted_text": "Groups of (n = 6) rats received either saline, harmine (1 mg/kg), DMT (1 mg/kg), or harmine + DMT (1 mg/kg each) as subcutaneous injections, as indicated in Figure 1.\nAfter 45 min, rats were sacrificed by decapitation, and the brains dissected into cerebellum and frontal cortex samples for radioactivity measurement and chemical analysis, thus 65 min after harmine + DMT."}}, "note": "Where “and” joins values, the source holds several entries; their conditions need not be identical. Equal entries are not always repeated.", "data": [{"molecule": "COc1ccc2c(c1)[nH]c1c(C)nccc12", "note": "[harmine]", "values": [{"measurement": "Qualitative effect on brain [^18F]FDG uptake (SUVglob maps)", "setting": "brain glucose metabolism; 1 mg/kg, separately or in combination", "value": "no conspicuous effects"}, {"measurement": "Thalamus SUVglob versus vehicle group (Dunn's post hoc test)", "setting": "brain glucose metabolism; 1 mg/kg, Z = −2.66, p = 0.047", "value": "significantly different from the vehicle group"}, {"measurement": "[^18F]FDG-PET SUV normalized to whole-brain uptake (SUVglob)", "setting": "brain glucose metabolism; NAc", "value": "6.23 (0.18) SUV"}, {"measurement": "[^18F]FDG-PET glucose normalized SUV (SUVgluc)", "setting": "brain glucose metabolism; NAc, 1 mg/kg", "value": "6.4 (1.05) SUV"}, {"measurement": "[^18F]FDG-PET SUV normalized to whole-brain uptake (SUVglob)", "setting": "brain glucose metabolism; OFC", "value": "6.5 (0.44) SUV"}, {"measurement": "[^18F]FDG-PET glucose normalized SUV (SUVgluc)", "setting": "brain glucose metabolism; OFC, 1 mg/kg", "value": "6.71 (1.33) SUV"}, {"measurement": "[^18F]FDG-PET SUV normalized to whole-brain uptake (SUVglob)", "setting": "brain glucose metabolism; cerebellum", "value": "4.52 (0.15) SUV"}, {"measurement": "[^18F]FDG-PET glucose normalized SUV (SUVgluc)", "setting": "brain glucose metabolism; cerebellum, 1 mg/kg", "value": "4.62 (0.67) SUV"}, {"measurement": "[^18F]FDG-PET SUV normalized to whole-brain uptake (SUVglob)", "setting": "brain glucose metabolism; hippocampus", "value": "5.32 (0.23) SUV"}, {"measurement": "[^18F]FDG-PET glucose normalized SUV (SUVgluc)", "setting": "brain glucose metabolism; hippocampus, 1 mg/kg", "value": "5.44 (0.77) SUV"}, {"measurement": "[^18F]FDG-PET SUV normalized to whole-brain uptake (SUVglob)", "setting": "brain glucose metabolism; mPFC", "value": "7.09 (0.32) SUV"}, {"measurement": "[^18F]FDG-PET glucose normalized SUV (SUVgluc)", "setting": "brain glucose metabolism; mPFC, 1 mg/kg", "value": "7.28 (1.18) SUV"}, {"measurement": "[^18F]FDG-PET SUV normalized to whole-brain uptake (SUVglob)", "setting": "brain glucose metabolism; striatum", "value": "6.99 (0.12) SUV"}, {"measurement": "[^18F]FDG-PET glucose normalized SUV (SUVgluc)", "setting": "brain glucose metabolism; striatum, 1 mg/kg", "value": "7.19 (1.21) SUV"}, {"measurement": "[^18F]FDG-PET SUV normalized to whole-brain uptake (SUVglob)", "setting": "brain glucose metabolism; thalamus", "value": "6.54 (0.13) SUV"}, {"measurement": "[^18F]FDG-PET glucose normalized SUV (SUVgluc)", "setting": "brain glucose metabolism; thalamus, 1 mg/kg", "value": "6.73 (1.15) SUV"}, {"measurement": "[^18F]FDG-PET SUV normalized to whole-brain uptake (SUVglob)", "setting": "brain glucose metabolism; visual cortex", "value": "6.1 (0.24) SUV"}, {"measurement": "[^18F]FDG-PET glucose normalized SUV (SUVgluc)", "setting": "brain glucose metabolism; visual cortex, 1 mg/kg", "value": "6.29 (1.15) SUV"}, {"measurement": "[^18F]FDG-PET glucose normalized SUV (SUVgluc)", "setting": "brain glucose metabolism; whole brain, 1 mg/kg", "value": "5.69 (0.93) SUV"}, {"measurement": "Inhibition of MAO-A in living brain", "setting": "MAO-A [1]", "value": 50, "unit": "%"}, {"measurement": "Behaviour and anesthesia requirement of treated rats", "setting": "rats", "value": "calmer and needed less isoflurane to sustain anesthesia"}, {"measurement": "Kd", "setting": "MAO-A [2]", "value": "~300", "unit": "nM"}, {"measurement": "Plasma half-life", "setting": "[3]", "value": 3.5, "unit": "h"}, {"measurement": "concentration at 100 min", "setting": "[4]; brain, 1 mg/kg, Brain harmine concentration, at 100 min after treatment with 1 mg/kg", "value": "~1000", "unit": "nM"}, {"measurement": "concentration at 95 min", "setting": "[4]; brain, 1 mg/kg, Mean concentration in brain tissue, Experiment 1, after harmine alone (1 mg/kg)", "value": "116 ng/g and 550 nM"}, {"measurement": "concentration at 70 min", "setting": "[4]; brain, 3 mg/kg, Brain harmine concentration, at 70 min after the higher dose (3 mg/kg)", "value": "~2000", "unit": "nM"}, {"measurement": "concentration at 65 min", "setting": "[4]; brain, Mean brain concentration, Experiment 2, harmine + DMT (3 mg/kg each)", "value": "424 ng/g and 2 µM"}, {"measurement": "concentration at 95 min", "setting": "[4]; brain, Mean concentration in brain tissue, Experiment 1, after harmine + DMT (1 mg/kg each)", "value": "257 ng/g and 1.21 µM"}, {"measurement": "concentration at 95 min", "setting": "[4]; cerebellum, 1 mg/kg, Brain concentration, Experiment 1, cerebellum, group DMT (1 mg/kg s.c.), 95 min, mean (SD)", "value": 13.6, "unit": "ng/g"}, {"measurement": "concentration at 95 min", "setting": "[4]; cerebellum, Brain concentration, Experiment 1, cerebellum, group Har (harmine 1 mg/kg s.c.), 95 min after drug, mean (SD)", "value": 104, "unit": "ng/g"}, {"measurement": "concentration at 95 min", "setting": "[4]; cerebellum, Brain concentration, Experiment 1, cerebellum, group Har + DMT (1 mg/kg each s.c.), 95 min, mean (SD)", "value": 189, "unit": "ng/g"}, {"measurement": "concentration at 65 min", "setting": "[4]; cerebellum, Brain concentration, Experiment 2, cerebellum, group Har + DMT (3 mg/kg each s.c.), 65 min, mean (SD)", "value": 412, "unit": "ng/g"}, {"measurement": "concentration at 95 min", "setting": "[4]; frontal cortex, 1 mg/kg, Brain concentration, Experiment 1, frontal cortex, group DMT (1 mg/kg s.c.), 95 min, mean (SD)", "value": 20.1, "unit": "ng/g"}, {"measurement": "concentration at 95 min", "setting": "[4]; frontal cortex, Brain concentration, Experiment 1, frontal cortex, group Har (harmine 1 mg/kg s.c.), 95 min, mean (SD)", "value": 128, "unit": "ng/g"}, {"measurement": "concentration at 95 min", "setting": "[4]; frontal cortex, Brain concentration, Experiment 1, frontal cortex, group Har + DMT (1 mg/kg each s.c.), 95 min, mean (SD)", "value": 326, "unit": "ng/g"}, {"measurement": "concentration at 65 min", "setting": "[4]; frontal cortex, Brain concentration, Experiment 2, frontal cortex, group Har + DMT (3 mg/kg each s.c.), 65 min, mean (SD)", "value": 436, "unit": "ng/g"}]}]}
